Each structure is given as a SMILES string. “And” between values parts separate entries of the source, which are not always exact repeats. Equal values may be shown once.

For data set [1], the target named is T1, mOATP1B2 (Mus musculus, UniProt Q9JJL3).
T1 sequence (Q9JJL3 1-689): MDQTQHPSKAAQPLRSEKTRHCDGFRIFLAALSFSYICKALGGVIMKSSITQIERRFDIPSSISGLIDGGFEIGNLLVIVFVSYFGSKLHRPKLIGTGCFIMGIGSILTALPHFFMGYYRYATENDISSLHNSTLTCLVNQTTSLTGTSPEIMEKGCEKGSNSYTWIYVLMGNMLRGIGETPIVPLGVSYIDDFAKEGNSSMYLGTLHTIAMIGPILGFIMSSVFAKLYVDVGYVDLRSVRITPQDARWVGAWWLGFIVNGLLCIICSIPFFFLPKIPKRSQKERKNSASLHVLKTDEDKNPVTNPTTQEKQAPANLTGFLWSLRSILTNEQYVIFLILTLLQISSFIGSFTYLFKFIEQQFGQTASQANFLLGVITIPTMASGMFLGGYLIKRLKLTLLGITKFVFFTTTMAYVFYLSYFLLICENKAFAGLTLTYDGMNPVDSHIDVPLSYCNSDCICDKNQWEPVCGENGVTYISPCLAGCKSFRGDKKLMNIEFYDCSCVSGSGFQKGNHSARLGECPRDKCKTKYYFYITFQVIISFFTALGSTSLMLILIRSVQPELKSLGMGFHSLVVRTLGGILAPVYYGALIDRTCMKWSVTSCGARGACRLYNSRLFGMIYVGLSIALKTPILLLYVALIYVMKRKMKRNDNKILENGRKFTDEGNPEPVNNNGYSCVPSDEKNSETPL
Nature of the data set: Inhibition of EβG uptake in HEK293 cells overexpressing mOATP1B2. The format is cell-based. The following applies: HEK293 mOATP1B2; inhibitor 10 μM, 15-min pre-incubation.

Data set [2] deals with hOAT1 (Homo sapiens, UniProt Q4U2R8). Nature of the data set: Vincristine uptake screen, HeLa cells overexpressing hOAT1. The format is in vitro ADME. Here is the method:
(§1) Relative uptake is expressed as percentage change compared with empty vector controls (n = 4–14 per group). […] Human OATP1B1 and OATP1B3 transporter–overexpressed cells were used as positive controls; empty vector controls were used as the negative control. […] Mechanical allodynia (C), thermal hyperalgesia (D), and sciatic nerve maximal action potential amplitudes (E) are expressed as percentage change relative to baseline values (n = 6–8 per group). Statistical analysis was performed using a 2-way ANOVA with Bonferroni’s post hoc test. **P < 0.01, ***P < 0.001, ****P < 0.0001, compared with baseline values. […] Data are shown as mean ± SEM. […]
(§2) transfected with transporters of interest, including hOAT1, hOAT3, hOAT4, hOATP1A2, hOATP3A1, hOATP4A1, hOATP5A1, hOATP1C1, hOATP1B1, hOATP1B3, hOATP2B1, hOCT1, hOCT2, hOCTN1, hOCTN2, hASBT, hNTCP, hNPT1, hMATE1, hOSTα/β, hPEPT1, hPEPT2, rOatp1a1, rOatp1a4, rOatp1a5, rOatp1b2, rNtcp, rAsbt, rOat1, and rOct1. Cells were transfected with expression plasmid or vector control lacking any insert using Lipofectin reagent (Invitrogen). […] The cellular radioactivity was quantified by liquid scintillation counting as described above. […]
(§3) Samples were analyzed using real-time quantitative PCR and Taqman Probes (Applied Biosystems). The relative gene expression was determined using the ΔΔCt method, and normalized to the mouse or human housekeeping gene, GAPDH. […]

For data set [3], the target named is hOCTN1 (Homo sapiens, UniProt Q9H015). Description: Vincristine uptake screen, HeLa cells overexpressing hOCTN1. Type of data set: in vitro ADME. Here is the method: as §1
hOCTN1, sequence (Q9H015 whole entry): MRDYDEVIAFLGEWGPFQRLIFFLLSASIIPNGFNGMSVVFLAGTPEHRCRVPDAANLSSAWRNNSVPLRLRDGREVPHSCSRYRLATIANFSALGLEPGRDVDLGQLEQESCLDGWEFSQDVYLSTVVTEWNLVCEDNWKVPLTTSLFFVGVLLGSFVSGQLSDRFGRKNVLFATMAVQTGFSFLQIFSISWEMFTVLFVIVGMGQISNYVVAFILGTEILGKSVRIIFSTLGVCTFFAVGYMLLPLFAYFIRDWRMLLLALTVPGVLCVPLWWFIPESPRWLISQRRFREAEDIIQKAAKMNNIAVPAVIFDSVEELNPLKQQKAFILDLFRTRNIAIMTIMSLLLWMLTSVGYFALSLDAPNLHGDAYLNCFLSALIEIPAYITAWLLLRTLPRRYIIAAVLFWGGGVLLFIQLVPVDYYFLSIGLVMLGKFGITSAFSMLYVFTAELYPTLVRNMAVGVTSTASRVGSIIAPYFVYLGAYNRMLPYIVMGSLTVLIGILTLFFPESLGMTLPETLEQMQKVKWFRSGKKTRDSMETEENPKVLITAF
as §2, with “(Invitrogen). Sixteen hours thereafter, cells were washed with transport media (OPTIMEM, Invitrogen) and treated with radiolabeled drug.” for “(Invitrogen).”

Data set [4] addresses rOATP1A1 (Rattus norvegicus, UniProt P46720). Nature of the data set: Vincristine uptake screen, HeLa cells overexpressing rOATP1A1. Type of data set: in vitro ADME. On the procedure:
as §1, §2, §3

Data set [5] relates to K562. Nature of the data set: Cytotoxicity of vincristine with or without nilotinib, MTT assay, K562. Type of data set: cell-based. As to conditions: Homo sapiens, K562, K562 cells, vincristine + 1μM Nilotinib, individual replicates. In general terms: Formazan colour is commonly taken as a measure of viable cells.

rOATP1A1, sequence (P46720 whole entry): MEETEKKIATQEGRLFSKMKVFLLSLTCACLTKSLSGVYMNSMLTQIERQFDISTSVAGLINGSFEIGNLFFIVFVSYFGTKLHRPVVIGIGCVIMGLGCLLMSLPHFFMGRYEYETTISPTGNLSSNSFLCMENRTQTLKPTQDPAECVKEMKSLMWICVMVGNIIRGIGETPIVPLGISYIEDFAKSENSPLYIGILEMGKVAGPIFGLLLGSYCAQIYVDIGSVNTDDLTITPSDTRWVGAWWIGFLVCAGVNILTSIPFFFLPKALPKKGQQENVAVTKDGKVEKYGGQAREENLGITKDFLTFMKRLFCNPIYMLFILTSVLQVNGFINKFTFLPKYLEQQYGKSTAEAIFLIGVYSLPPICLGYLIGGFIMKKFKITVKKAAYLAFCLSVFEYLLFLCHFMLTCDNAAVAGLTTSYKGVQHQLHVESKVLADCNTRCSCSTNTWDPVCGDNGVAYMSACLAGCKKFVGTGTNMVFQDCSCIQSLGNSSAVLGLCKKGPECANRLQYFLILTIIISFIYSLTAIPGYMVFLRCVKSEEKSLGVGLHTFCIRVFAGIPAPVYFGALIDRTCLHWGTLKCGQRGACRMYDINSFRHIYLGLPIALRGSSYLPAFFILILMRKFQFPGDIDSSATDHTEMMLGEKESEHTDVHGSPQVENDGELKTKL
hOAT1, sequence (Q4U2R8 whole entry): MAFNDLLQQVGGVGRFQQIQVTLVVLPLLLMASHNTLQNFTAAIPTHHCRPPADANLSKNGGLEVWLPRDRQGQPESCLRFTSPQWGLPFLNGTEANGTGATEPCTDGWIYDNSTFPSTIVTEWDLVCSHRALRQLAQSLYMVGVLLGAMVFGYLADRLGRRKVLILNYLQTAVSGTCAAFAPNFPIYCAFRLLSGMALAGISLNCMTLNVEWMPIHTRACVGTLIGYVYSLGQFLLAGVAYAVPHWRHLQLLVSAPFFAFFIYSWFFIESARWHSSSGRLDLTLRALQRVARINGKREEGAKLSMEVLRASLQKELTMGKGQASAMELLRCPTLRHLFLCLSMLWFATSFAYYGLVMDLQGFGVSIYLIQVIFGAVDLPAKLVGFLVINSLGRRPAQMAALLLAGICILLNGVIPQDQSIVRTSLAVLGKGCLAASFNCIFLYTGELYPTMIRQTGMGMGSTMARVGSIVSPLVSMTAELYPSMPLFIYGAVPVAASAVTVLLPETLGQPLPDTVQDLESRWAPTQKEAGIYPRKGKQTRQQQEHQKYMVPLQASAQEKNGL

For `Cc1cn(-c2cc(NC(=O)c3ccc(C)c(Nc4nccc(-c5cccnc5)n4)c3)cc(C(F)(F)F)c2)cn1` [Nilotinib, nilotinib], the “EβG uptake (% of vehicle)” value in data set [1] is 37.5921 % of vehicle and 30.8257 % of vehicle and 32.2185 % of vehicle.

Turning to `CC[C@]1(O)C[C@H]2CN(CCc3c([nH]c4ccccc34)[C@@](C(=O)OC)(c3cc4c(cc3OC)N(C=O)[C@H]3[C@@](O)(C(=O)OC)[C@H](OC(C)=O)[C@]5(CC)C=CCN6CC[C@]43[C@@H]65)C2)C1` [Vincristine, vincristine], the “Vincristine uptake (% of vector control)” value in data set [2] was 127.00 % of vector control and 112.00 % of vector control and 76.00 % of vector control and 98.00 % of vector control and 129.00 % of vector control and 120.00 % of vector control and 111.00 % of vector control and 117.00 % of vector control; in data set [3] it was 169.00 % of vector control and 132.00 % of vector control and 109.00 % of vector control and 131.00 % of vector control and 135.00 % of vector control and 167.00 % of vector control and 158.00 % of vector control; in data set [4] it was 102.00 % of vector control and 84.00 % of vector control and 73.00 % of vector control and 95.00 % of vector control and 74.00 % of vector control and 58.00 % of vector control and 71.00 % of vector control and 62.00 % of vector control. For the same molecule, in data set [5], the IC50 (as a rule, the point on the concentration scale where inhibition reaches its midpoint) is 17.5 nM.

Source of the values: PMC10443802, “Targeting a xenobiotic transporter to ameliorate vincristine-induced sensory neuropathy” (JCI Insight, 2023).
